Values of other authors as cited in patent US7723528B2, “Sulfur transfer reagents for oligonucleotide synthesis” (AM Chemicals LLC, priority 2008, dated 2010).

Conditions: background statement

Row | Hydrolytic stability | SMILES
1 | rather low | CCOc1nc(=O)ss1 [EDITH, 3-ethoxy-1,2,4-dithiazoline-5-one]
2 | rather low | O=C1SS(=O)(=O)c2ccccc21 [Beaucage reagent, 3H-1,2-benzodithiol-3-one-1,1-dioxide]
